Assays:
purple nutsedge = experiment: Test B pre/postemergence purple nutsedge; type: in vivo, Cyperus rotundus
Procedure, shortened: (§1)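 Test chemicals in a non-phytotoxic solvent mixture with surfactant were sprayed preemergence onto planted seeds and postemergence onto plants 2 to 18 cm tall (1- to 4-leaf stage). After twelve to sixteen days in a greenhouse, injury was visually rated against untreated controls from 0 (no effect) to 10 (complete control).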

blackgrass = experiment: Test B pre/postemergence blackgrass; type: in vivo, Alopecurus myosuroides
Procedure, shortened: as §1

rape = experiment: Test B pre/postemergence rape; type: in vivo, Brassica napus
Procedure, shortened: as §1

velvetleaf = experiment: Test B pre/postemergence velvetleaf; type: in vivo, Abutilon theophrasti; conditions: for Plant response rating, Velvetleaf: Postemergence
Procedure, shortened: as §1

crabgrass = experiment: Test B pre/postemergence crabgrass; type: in vivo, Digitaria sanguinalis
Procedure, shortened: as §1

wheat = experiment: Test B pre/postemergence wheat; type: in vivo, Triticum aestivum; conditions: for Plant response rating, Wheat: Postemergence
Procedure, shortened: as §1

surinam grass = experiment: Test B pre/postemergence surinam grass; type: in vivo, Brachiaria decumbens
Procedure, shortened: as §1

pigweed = experiment: Test B pre/postemergence pigweed; type: in vivo, Amaranthus retroflexus; conditions: for Plant response rating, Redroot pigweed: Postemergence
Procedure, shortened: as §1

soybean = experiment: Test B pre/postemergence soybean; type: in vivo, Glycine max; conditions: for Plant response rating, Soybean: Postemergence
Procedure, shortened: as §1

sugar beet = experiment: Test B pre/postemergence sugar beet; type: in vivo, Beta vulgaris; conditions: for Plant response rating, Sugarbeets: Postemergence
Procedure, shortened: as §1

giant foxtail = experiment: Test B pre/postemergence giant foxtail; type: in vivo, Setaria faberii
Procedure, shortened: as §1

cocklebur = experiment: Test B pre/postemergence cocklebur; type: in vivo, Xanthium strumarium
Procedure, shortened: as §1

morningglory = experiment: Test B pre/postemergence morningglory; type: in vivo, Ipomoea hederacea
Procedure, shortened: as §1

bedstraw = experiment: Test B pre/postemergence bedstraw; type: in vivo, Galium aparine; conditions: for Plant response rating, Bedstraw: Postemergence
Procedure, shortened: as §1

wild oat = experiment: Test B pre/postemergence wild oat; type: in vivo, Avena fatua; conditions: for Plant response rating, Wild oats: Postemergence
Procedure, shortened: as §1

corn = experiment: Test B pre/postemergence corn; type: in vivo, Zea mays
Procedure, shortened: as §1

[1] = Postemergence, Rate 62 g/ha, scale of 0 to 10, 0 is no effect, 10 is complete control
[2] = Postemergence, Rate 125 g/ha, scale 0 to 10, 0 is no effect, 10 is complete control
[3] = Preemergence, Rate 62 g/ha, scale 0 to 10 (0 no effect, 10 complete control)
[4] = Preemergence, Rate 125 g/ha, scale 0 to 10, 0 is no effect, 10 is complete control
[5] = Preemergence, Rate 500 g/ha, scale of 0 to 10 where 0 is no effect and 10 is complete control
[6] = Rate 250 g/ha, Postemergence, scale of 0 to 10 where 0 is no effect and 10 is complete control
[7] = Postemergence, Rate 500 g/ha, scale of 0 to 10 where 0 is no effect and 10 is complete control
[8] = Rate 500 g/ha, scale of 0 to 10 where 0 is no effect and 10 is complete control
[9] = Rate 250 g/ha, scale of 0 to 10 where 0 is no effect and 10 is complete control

## CC(=O)C(C)n1c(=O)on(C(=O)N(c2ccccc2)C(C)C)c1=O (centres unmarked) [Compound 576]
Purple nutsedge; [1]
  Nutsedge plant response rating: 0
Purple nutsedge; [2]
  Nutsedge plant response rating: 0
Purple nutsedge; [3]
  Nutsedge plant response rating: 0
Purple nutsedge; [4]
  Nutsedge plant response rating: 0
Purple nutsedge; Preemergence, Rate 250 g/ha
  Nutsedge plant response rating (0 to 10 scale): 0
Purple nutsedge; [5]
  Nutsedge plant response rating: 8
Purple nutsedge; [6]
  Plant response rating, Nutsedge: 0
blackgrass; [1]
  Blackgrass plant response rating: 0
blackgrass; [2]
  Blackgrass plant response rating: 0
blackgrass; [7]
  Plant response rating, Blackgrass: 7
blackgrass; [3]
  Blackgrass plant response rating: 0
blackgrass; [4]
  Blackgrass plant response rating: 3
blackgrass; Preemergence, Rate 250 g/ha
  Blackgrass plant response rating (0 to 10 scale): 6
blackgrass; [5]
  Blackgrass plant response rating: 9
blackgrass; [6]
  Plant response rating, Blackgrass: 2
rape; [1]
  Rape plant response rating: 0
rape; [2]
  Rape plant response rating: 0
rape; [7]
  Plant response rating, Rape: 0
rape; [3]
  Rape plant response rating: 0
rape; [4]
  Rape plant response rating: 0
rape; Preemergence, Rate 250 g/ha
  Rape plant response rating (0 to 10 scale): 2
rape; [5]
  Rape plant response rating: 7
rape; [6]
  Plant response rating, Rape: 0
velvetleaf; [8]
  Plant response rating, Velvetleaf: 0
velvetleaf; [3]
  Velvetleaf plant response rating: 0
velvetleaf; [4]
  Velvetleaf plant response rating: 0
velvetleaf; Preemergence, Rate 250 g/ha
  Velvetleaf plant response rating (0 to 10 scale): 0
velvetleaf; [5]
  Velvetleaf plant response rating: 3
velvetleaf; [9]
  Plant response rating, Velvetleaf: 0
crabgrass; [1]
  Crabgrass plant response rating: 2
crabgrass; [2]
  Crabgrass plant response rating: 3
crabgrass; [7]
  Plant response rating, Crabgrass: 9
crabgrass; [3]
  Crabgrass plant response rating: 0
crabgrass; [4]
  Crabgrass plant response rating: 4
crabgrass; Preemergence, Rate 250 g/ha
  Crabgrass plant response rating (0 to 10 scale): 9
crabgrass; [5]
  Crabgrass plant response rating: 9
crabgrass; [6]
  Plant response rating, Crabgrass: 9
wheat; [8]
  Plant response rating, Wheat: 0
wheat; [3]
  Wheat plant response rating: 0
wheat; [4]
  Wheat plant response rating: 6
wheat; Preemergence, Rate 250 g/ha
  Wheat plant response rating (0 to 10 scale): 8
wheat; [5]
  Wheat plant response rating: 8
wheat; [9]
  Plant response rating, Wheat: 0
Surinam grass; [1]
  B. signalgrass plant response rating: 0
Surinam grass; [2]
  B. signalgrass plant response rating: 0
Surinam grass; [7]
  Plant response rating, B. signalgrass: 2
Surinam grass; [3]
  B. signalgrass plant response rating: 0
Surinam grass; [4]
  B. signalgrass plant response rating: 3
Surinam grass; Preemergence, Rate 250 g/ha
  B. signalgrass plant response rating (0 to 10 scale, 0 is no effect, 10 is complete control): 6
Surinam grass; [5]
  B. signalgrass plant response rating: 9
Surinam grass; [6]
  Plant response rating, B. signalgrass: 0
pigweed; [8]
  Plant response rating, Redroot pigweed: 4
pigweed; [3]
  Redroot pigweed plant response rating: 0
pigweed; [4]
  Redroot pigweed plant response rating: 9
pigweed; Preemergence, Rate 250 g/ha
  Redroot pigweed plant response rating (0 to 10 scale): 10
pigweed; [5]
  Redroot pigweed plant response rating: 10
pigweed; [9]
  Plant response rating, Redroot pigweed: 0
soybean; [8]
  Plant response rating, Soybean: 4
soybean; [3]
  Soybean plant response rating: 0
soybean; [4]
  Soybean plant response rating: 0
soybean; Preemergence, Rate 250 g/ha
  Soybean plant response rating (0 to 10 scale): 0
soybean; [5]
  Soybean plant response rating: 0
soybean; [9]
  Plant response rating, Soybean: 3
Sugar beet; [8]
  Plant response rating, Sugarbeets: 0
Sugar beet; [3]
  Sugarbeets plant response rating: 0
Sugar beet; [4]
  Sugarbeets plant response rating: 0
Sugar beet; Preemergence, Rate 250 g/ha
  Sugarbeets plant response rating (0 to 10 scale): 4
Sugar beet; [5]
  Sugarbeets plant response rating: 6
Sugar beet; [9]
  Plant response rating, Sugarbeets: 0
Giant foxtail; [1]
  Giant foxtail plant response rating: 2
Giant foxtail; [2]
  Giant foxtail plant response rating: 3
Giant foxtail; [7]
  Plant response rating, Giant foxtail: 8
Giant foxtail; [3]
  Giant foxtail plant response rating: 2
Giant foxtail; [4]
  Giant foxtail plant response rating: 4
Giant foxtail; Preemergence, Rate 250 g/ha
  Giant foxtail plant response rating (0 to 10 scale): 9
Giant foxtail; [5]
  Giant foxtail plant response rating: 9
Giant foxtail; [6]
  Plant response rating, Giant foxtail: 7
cocklebur; [1]
  Cocklebur plant response rating: 0
cocklebur; [2]
  Cocklebur plant response rating: 0
cocklebur; [7]
  Plant response rating, Cocklebur: 0
cocklebur; [3]
  Cocklebur plant response rating: 0
cocklebur; [4]
  Cocklebur plant response rating: 0
cocklebur; Preemergence, Rate 250 g/ha
  Cocklebur plant response rating (0 to 10 scale): 0
cocklebur; [5]
  Cocklebur plant response rating: 0
cocklebur; [6]
  Plant response rating, Cocklebur: 0
morningglory; [1]
  Morningglory plant response rating: 2
morningglory; [2]
  Morningglory plant response rating: 2
morningglory; [7]
  Plant response rating, Morningglory: 4
morningglory; [3]
  Morningglory plant response rating: 0
morningglory; [4]
  Morningglory plant response rating: 0
morningglory; Preemergence, Rate 250 g/ha
  Morningglory plant response rating (0 to 10 scale): 0
morningglory; [5]
  Morningglory plant response rating: 0
morningglory; [6]
  Plant response rating, Morningglory: 4
bedstraw; [8]
  Plant response rating, Bedstraw: 9
bedstraw; [3]
  Bedstraw plant response rating: 0
bedstraw; [4]
  Bedstraw plant response rating: 0
bedstraw; Preemergence, Rate 250 g/ha
  Bedstraw plant response rating (0 to 10 scale): 0
bedstraw; [5]
  Bedstraw plant response rating: 0
bedstraw; [9]
  Plant response rating, Bedstraw: 5
Wild oat; [8]
  Plant response rating, Wild oats: 0
Wild oat; [3]
  Wild oats plant response rating: 0
Wild oat; [4]
  Wild oats plant response rating: 0
Wild oat; Preemergence, Rate 250 g/ha
  Wild oats plant response rating (0 to 10 scale): 3
Wild oat; [5]
  Wild oats plant response rating: 8
Wild oat; [9]
  Plant response rating, Wild oats: 0
corn; [1]
  Corn plant response rating: 0
corn; [2]
  Corn plant response rating: 0
corn; [7]
  Plant response rating, Corn: 4
corn; [3]
  Corn plant response rating: 0
corn; [4]
  Corn plant response rating: 0
corn; Preemergence, Rate 250 g/ha
  Corn plant response rating (0 to 10 scale): 0
corn; [5]
  Corn plant response rating: 2
corn; [6]
  Plant response rating, Corn: 2
